# Legend:
# [1] = test system: NFAT/GFP reporter in CD8+ CD19 CAR/4-1BB T cells; assay: NFAT/GFP reporter assay during sequential stimulation; format: cell-based, human; conditions: day 1
# [2] = test system: CD19 CAR/4-1BB-T cells; Raji tumor cells; assay: Tumor burden by bioluminescence imaging, intermittent dasatinib (Example 11); format: in vivo, NSG mice; conditions: day 8; CAR-T cells and intermittent dasatinib 5 mg/kg; 1.9e10 without dasatinib
# Procedure: The Institutional Animal Care and Use Committee of UKW approved all mouse experiments. NOD.Cg-Prkdc^scidIl2rg^tm1wjl/SzJ (NSG) mice (female, 6-8 week old) were purchased from Charles River (Sulzfeld, Germany). Mice were inoculated with 1×10^6 Raji/ffluc_GFP tumor cells via tail vein injection (i.v.). Mice were treated with 5×10^6 CAR-modified or control untransduced T-cells (CD4:CD8 ratio=1:1) via tail vein injection (i.v.). […] Tumor burden and distribution was analyzed by serial bioluminescence imaging on an IVIS Lumina imager (Perkin Elmer, Baesweiler, Germany): mice received i.p. injections of 0.3 mg/g luciferin and images were acquired 10 minutes after luciferin injection in small binning mode at an acquisition time of 1 s to 1 min to obtain unsaturated images. Data were analyzed using LivingImage Software (Caliper) and the average radiance (or photon flux) analyzed in regions of interest that encompassed the entire body of each individual mouse. Mice were sacrificed at the end of the experiment and human T cells in bone marrow, peripheral blood and spleen were analyzed by flow cytometry. The presence of (human) cytokines in serum was measured using multiplex cytokine analysis.
# In brief, cohorts of 1-12 mice were inoculated with 1×10^6 firefly-luciferase_GFP-transduced Raji tumor cells on day 0. […]
# [3] = test system: CD8+ T cells expressing a CD19 CAR with CD28 costimulatory domain; assay: CFSE proliferation assay, co-culture with K562/CD19; format: cell-based, human; conditions: dasatinib ≥50 nM; 72 h
# Procedure: Proliferation: T cells were labeled with 0.2 μM carboxyfluorescein succinimidyl ester (CFSE, Invitrogen), washed and plated in duplicate or triplicate wells with irradiated (80 Gy) stimulator cells at an E:T ratio of 4:1 (K562/ROR1, K562/CD19 or RCH-ACV). No exogenous cytokines were added to the culture medium. After a 72-hour incubation, cells were labeled with anti-CD3 mAb, and analyzed by flow cytometry to assess cell division of T cells.
# CAR-T cells were labeled with CFSE and co-cultured with K562 that the inventors had transduced with either CD19 (for testing CD19 CAR-T cells) or ROR1 (for testing ROR1 CAR-T cells). Dasatinib was added to the assay medium at the beginning of the co-culture assay. Flow cytometric analyses were performed to determine the proliferation of T cells at the end of the co-culture assay.
# [4] = test system: CD8+ T cells expressing a SLAMF7 CAR with 4-1BB costimulation; assay: Cytokine ELISA, co-culture with K562/SLAMF7; format: cell-based, human; conditions: 20 h
# Procedure: (§1) Cytokine secretion: 5×10^4 T-cells were plated in duplicate or triplicate wells with target cells at an E:T ratio of 4:1 (K562/ROR1, K562/CD19, RCH-ACV), and IFN-γ and IL-2 were measured by ELISA, or cytokine panels were measured by multiplex cytokine immunoassay (Luminex) in supernatant removed after 20-h incubation. Specific cytokine production was calculated by subtracting the amount of cytokines released by unstimulated CAR-T cells from the amount of cytokines released after antigen-specific stimulation. The remaining cytokine secretion in % as shown in the diagrams is normalized to CAR-T cells in the absence of dasatinib-treatment (100%).
# (§2) The inventors prepared SLAMF7-specific CD8^+ and CD4^+ CAR-T cell lines from n=2 healthy donors. In each of the T-cell lines, the inventors enriched CAR-expressing T cells to >90% purity using the EGFRt-transduction marker. […] CAR-T cells were co-cultured with K562 that the inventors had transduced with SLAMF7. Dasatinib was added to the assay medium at the beginning of the co-culture assay. ELISA was performed to detect IFN-γ and IL-2 in supernatant removed from the co-culture.
# [5] = test system: CD4+ T cells expressing a SLAMF7 CAR with CD28 costimulatory domain; assay: Cytokine ELISA, co-culture with K562/SLAMF7; format: cell-based, human; conditions: dasatinib 20 nM; 20 h
# Procedure: as §1, §2
# [6] = test system: CD4+ T cells expressing a SLAMF7 CAR with 4-1BB costimulatory domain; assay: Cytokine ELISA, co-culture with K562/SLAMF7; format: cell-based, human; conditions: dasatinib ≥20 nM; 20 h
# Procedure: as §1, §2
# [7] = test system: CD8+ T cells expressing a SLAMF7 CAR with CD28 costimulatory domain; assay: Cytokine ELISA, co-culture with K562/SLAMF7; format: cell-based, human; conditions: 20 h
# Procedure: as §1, §2
# [8] = test system: CD8+ T cells expressing a CD19 CAR with CD28 costimulatory domain; assay: Cytokine production and secretion (IFN-γ, IL-2 ELISA), co-culture with K562/CD19; format: cell-based, human; conditions: dasatinib ≥50 nM; 20 h
# Procedure: as §1
# CAR-T cells were co-cultured with K562 that the inventors had transduced with either CD19 (for testing CD19 CAR-T cells) or ROR1 (for testing ROR1 CAR-T cells). Dasatinib was added to the assay medium at the beginning of the co-culture assay. ELISA was performed to detect IFN-γ and IL-2 in supernatant removed from the co-culture.
# [9] = test system: CD8+ T cells expressing a ROR1 CAR with 4-1BB costimulatory domain; assay: Bioluminescence-based cytotoxicity assay, K562/ROR1 target cells; format: cell-based, human
# [10] = test system: CD4+ T cells expressing a CD19 CAR with CD28 costimulatory domain; assay: Multiplex cytokine analysis, co-culture with K562/CD19; format: cell-based, human; conditions: dasatinib ≥25 nM; 20 h; compared to non-dasatinib treated CAR-T cells
# Procedure: (§3) A multiplex cytokine analysis was performed in supernatant removed from the co-culture.
# [11] = test system: NFAT-inducible GFP reporter gene in CD8+ CD19 CAR/4-1BB T cells; assay: NFAT-inducible GFP reporter assay; format: cell-based, human; conditions: 100 nM dasatinib; stimulation with Raji, 24 h; 1211 without dasatinib, 117 unstimulated
# Procedure: T cells (co-)expressing the NFAT inducible GFPwt reporter gene were co-cultured in the presence of 10 U IL-2 with irradiated (80 Gy) Raji or K562 tumor cells at an E:T ratio of 5:1 or without target cells. […] After 24 hours of co-culture, cells were labeled with anti-CD3 mAb, and analyzed by flow cytometry to assess GFP expression in T cells.
# The inventors prepared CD8^+ CD19 CAR/4-1BB T cells, that the inventors transduced to co-express an NFAT-inducible GFP reporter gene.
# [12] = test system: CD4+ T cells expressing a CD19 CAR with 4-1BB costimulation; assay: Multiplex cytokine analysis, co-culture with K562/CD19; format: cell-based, human; conditions: dasatinib ≥25 nM; 20 h; compared to non-dasatinib treated CAR-T cells
# Procedure: as §3
structure (smiles),measurement,setting,value
Cc1nc(Nc2ncc(C(=O)Nc3c(C)cccc3Cl)s2)cc(N2CCN(CCO)CC2)n1 [dasatinib],GFP MFI,"[1]; dasatinib added one hour after assay set up, 1949 in untreated stimulated CAR-T cells",734
same,GFP MFI,[1]; dasatinib present from the beginning,137
same,average bioluminescence signal,[2],5.6e9 p/s/cm*2/sr
same,residual proliferation compared to non-dasatinib treated CAR-T cells,[3],less than 7%
same,residual specific IFN-γ production,[4]; dasatinib 20 nM,less than 15%
same,residual specific IFN-γ production,[4]; dasatinib ≥40 nM,less than 0.8%
same,residual IFN-γ,[5],less than 1.2%
same,residual IFN-γ,[6],less than 0.5%
same,residual specific IFN-γ production,[7]; dasatinib ≥20 nM,less than 4%
same,residual specific IFN-γ production,[7]; dasatinib ≥40 nM,less than 0.2%
same,residual specific IFN-γ production compared to non-dasatinib treated CAR-T cells,[8],less than 4.5%
same,specific lysis of target cells,"[9]; dasatinib 25 nM, up to t=5 h, 73% by non-dasatinib treated",less than 2%
same,specific lysis of target cells,"[9]; dasatinib 50 nM, any given timepoint, 94% by non-dasatinib treated at t=10 h",less than 2%
same,"reduction of production and secretion of GM-CSF, IFN-γ, IL-2, IL-4, IL-5, IL-6, IL-8",[10],> 95%
same,mean fluorescence intensity (MFI) of GFP expression,[11],129
same,"reduction of production and secretion of GM-CSF, IFN-γ, IL-2, IL-4, IL-5, IL-6, IL-8",[12],> 95%

# Source: patent publication US20230310432A1 (JULIUS-MAXIMILIANS-UNIVERSITÄT WÜRZBURG, priority 2017, published 2023)
